Patent US8791131B2, “Imidazo[1,5]naphthyridine compounds, their pharmaceutical use and compositions” (Pfizer Inc., priority 2008, dated 2014)
pKi: −log10 of the molar value.

Experiments:
mTOR = mTOR (Homo sapiens (Human), UniProt P42345)
[1] = test system: PI3-K (phosphorylation of AKT at serine 473) in BT20 cells; experiment: PI3-Kα cellular assay (phospho-AKT Ser473 ELISA in BT20 cells); conditions: Homo sapiens, BT-20, 1 h, read-out: S473 pAKT 10% FBS IC50 (μM);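 note: lysates read by ELISA with TMB colour at 450 nm, cells given 0.5% DMSO vehicle serve as positive control and cell-free wells as negative control, duplicate wells per concentration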
PI3-Kα = PI3-Kα (Mus musculus (Mouse), UniProt P42337); experiment: PI3-Kα biochemical assay (in vitro kinase assay, fluorescence polarization); conditions: Ki calculated from IC50, [ATP]=30 uM, Km=25 uM;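 note: Insect-cell-expressed mouse p110/p85 complex converting PI(4,5)P2, product PI(3,4,5)P3 detected by displacing TAMRA-tagged PI(3,4,5)P3 from Grip1 PH domain, lower polarization means more product, room temperature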
Sequence of PI3-Kα (P42337 whole entry, the tested form may be a part): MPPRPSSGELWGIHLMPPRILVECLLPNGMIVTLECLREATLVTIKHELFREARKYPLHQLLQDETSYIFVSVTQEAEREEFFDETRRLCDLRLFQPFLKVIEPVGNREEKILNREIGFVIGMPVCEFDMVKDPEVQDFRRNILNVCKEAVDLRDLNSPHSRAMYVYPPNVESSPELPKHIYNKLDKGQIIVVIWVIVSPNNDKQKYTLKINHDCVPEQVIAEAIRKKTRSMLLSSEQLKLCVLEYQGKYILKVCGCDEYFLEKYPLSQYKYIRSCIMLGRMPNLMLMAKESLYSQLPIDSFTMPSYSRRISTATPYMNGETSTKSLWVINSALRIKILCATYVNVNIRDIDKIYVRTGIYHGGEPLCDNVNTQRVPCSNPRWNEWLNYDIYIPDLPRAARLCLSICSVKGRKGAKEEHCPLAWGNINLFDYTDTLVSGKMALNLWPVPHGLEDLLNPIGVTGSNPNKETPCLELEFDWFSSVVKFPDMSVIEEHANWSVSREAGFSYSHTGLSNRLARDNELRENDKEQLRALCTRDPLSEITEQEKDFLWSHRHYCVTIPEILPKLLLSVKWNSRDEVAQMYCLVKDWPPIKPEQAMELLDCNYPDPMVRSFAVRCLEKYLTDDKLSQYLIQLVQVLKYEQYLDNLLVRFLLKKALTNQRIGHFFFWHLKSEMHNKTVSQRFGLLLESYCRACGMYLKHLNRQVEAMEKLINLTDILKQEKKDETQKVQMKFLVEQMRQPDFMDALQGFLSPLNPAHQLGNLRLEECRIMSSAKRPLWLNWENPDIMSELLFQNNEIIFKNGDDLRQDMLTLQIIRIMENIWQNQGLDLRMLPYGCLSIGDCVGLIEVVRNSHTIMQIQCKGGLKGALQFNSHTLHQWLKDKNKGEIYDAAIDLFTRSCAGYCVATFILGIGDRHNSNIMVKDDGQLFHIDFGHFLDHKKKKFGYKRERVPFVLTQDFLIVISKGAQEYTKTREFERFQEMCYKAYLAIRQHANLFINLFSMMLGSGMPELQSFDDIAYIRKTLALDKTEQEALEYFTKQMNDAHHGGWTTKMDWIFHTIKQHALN
Sequence of PI3-Kα (P26450 whole entry partner, the tested form may be a part): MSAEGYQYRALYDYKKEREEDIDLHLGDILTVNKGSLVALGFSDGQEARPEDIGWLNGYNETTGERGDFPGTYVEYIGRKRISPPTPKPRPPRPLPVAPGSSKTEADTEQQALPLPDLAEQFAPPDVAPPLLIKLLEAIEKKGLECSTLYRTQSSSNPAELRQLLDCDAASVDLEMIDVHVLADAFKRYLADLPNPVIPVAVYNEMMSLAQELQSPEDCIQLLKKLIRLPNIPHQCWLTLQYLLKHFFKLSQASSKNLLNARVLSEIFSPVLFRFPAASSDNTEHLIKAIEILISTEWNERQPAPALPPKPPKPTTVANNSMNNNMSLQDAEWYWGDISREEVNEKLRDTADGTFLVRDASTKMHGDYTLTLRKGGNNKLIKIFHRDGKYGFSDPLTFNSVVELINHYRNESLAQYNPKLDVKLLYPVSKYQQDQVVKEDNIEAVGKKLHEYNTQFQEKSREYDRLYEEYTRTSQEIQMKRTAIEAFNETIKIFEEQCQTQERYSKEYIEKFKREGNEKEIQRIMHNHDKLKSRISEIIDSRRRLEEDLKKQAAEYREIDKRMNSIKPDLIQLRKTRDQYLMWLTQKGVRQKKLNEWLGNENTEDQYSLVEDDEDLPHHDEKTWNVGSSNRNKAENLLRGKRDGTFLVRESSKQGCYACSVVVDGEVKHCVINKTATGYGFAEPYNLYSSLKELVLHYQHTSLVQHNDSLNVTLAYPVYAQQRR

Sequence of mTOR (P42345 2156-2469): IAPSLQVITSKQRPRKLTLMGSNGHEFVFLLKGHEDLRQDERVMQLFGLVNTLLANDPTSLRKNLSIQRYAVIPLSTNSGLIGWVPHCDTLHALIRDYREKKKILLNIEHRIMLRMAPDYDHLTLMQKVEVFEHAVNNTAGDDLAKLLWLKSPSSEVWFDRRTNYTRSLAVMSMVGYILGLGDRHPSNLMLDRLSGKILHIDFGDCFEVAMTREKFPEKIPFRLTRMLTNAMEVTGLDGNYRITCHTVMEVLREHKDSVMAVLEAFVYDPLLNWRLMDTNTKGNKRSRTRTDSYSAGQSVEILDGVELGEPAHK

| SMILES | pKi (mTOR) | IC50 [1] [µM] | PI3Ka Ki (PI3-Kα) [nM] |
| --- | --- | --- | --- |
| COc1ccc(-c2ccc3ncc4c(c3n2)n(C2CCN(CC(N)=O)CC2)c(=O)n4C)cn1 [Compound 139, 2-{4-[8-(6-methoxypyridin-3-yl)-3-methyl-2-oxo-2,3-dihydro-1H-imidazo[4,5-c][1,5]naphthyridin-1-yl]piperidin-1-yl}acetamide] | 8.48 | 0.00714 | 0.339 |
| COc1ccc(-c2ccc3ncc4c(c3n2)n(C2CCOCC2)c(=O)n4C)cn1 [Compound 140, 8-(6-methoxypyridin-3-yl)-3-methyl-1-(tetrahydro-2H-pyran-4-yl)-1,3-dihydro-2H-imidazo[4,5-c][1,5]naphthyridin-2-one] | 8.11 | 0.0185 | 0.668 |
| Cn1c(=O)n(C2CCN(CC(F)(F)F)CC2)c2c3nc(-c4cnc5ccccc5c4)ccc3ncc21 [Compound 141, 3-methyl-8-quinolin-3-yl-1-[1-(2,2,2-trifluoroethyl)piperidin-4-yl]-1,3-dihydro-2H-imidazo[4,5-c][1,5]naphthyridin-2-one] | 8.02 | 0.0148 | 20.5 |
| CNC(=O)N1CCC(n2c(=O)n(C)c3cnc4ccc(-c5ccc(OC)nc5)nc4c32)CC1 [Compound 142, 4-[8-(6-methoxypyridin-3-yl)-3-methyl-2-oxo-2,3-dihydro-1H-imidazo[4,5-c][1,5]naphthyridin-1-yl]-N-methylpiperidine-1-carboxamide] | 8.80 | 0.00919 | 1.15 |
| Cn1c(=O)n(C2CCN(C(=O)C(C)(C)O)CC2)c2c3nc(-c4cnc5ccccc5c4)ccc3ncc21 [Compound 143, 1-[1-(2-hydroxy-2-methylpropanoyl)piperidin-4-yl]-3-methyl-8-quinolin-3-yl-1,3-dihydro-2H-imidazo[4,5-c][1,5]naphthyridin-2-one] | 8.14 | 0.028 | 0.568 |
| CN(C)CC(=O)N1CCC(n2c(=O)n(C)c3cnc4ccc(-c5ccc(N(C)C)nc5)nc4c32)CC1 [Compound 144, 8-[6-(dimethylamino)pyridin-3-yl]-1-[1-(N,N-dimethylglycyl)piperidin-4-yl]-3-methyl-1,3-dihydro-2H-imidazo[4,5-c][1,5]naphthyridin-2-one] | 8.10 | 0.0153 | 2.1 |
| Cn1c(=O)n(C2CCN(C(=O)C(C)(C)N)CC2)c2c3nc(-c4cnc5ccccc5c4)ccc3ncc21 [Compound 145, 3-methyl-1-[1-(2-methylalanyl)piperidin-4-yl]-8-quinolin-3-yl-1,3-dihydro-2H-imidazo[4,5-c][1,5]naphthyridin-2-one] | 7.88 | 0.0117 | 3.92 |
| Cn1c(=O)n([C@H]2CC[C@H](O)CC2)c2c3nc(-c4cnc5ccccc5c4)ccc3ncc21 [Compound 146, 1-(trans-4-hydroxycyclohexyl)-3-methyl-8-quinolin-3-yl-1,3-dihydro-2H-imidazo[4,5-c][1,5]naphthyridin-2-one] | 8.42 | 0.00521 | 1.2 |
| Cn1c(=O)n([C@H]2CC[C@H](OCCO)CC2)c2c3nc(-c4cnc5ccccc5c4)ccc3ncc21 [Compound 147, 1-[trans-4-(2-hydroxyethoxy)cyclohexyl]-3-methyl-8-quinolin-3-yl-1,3-dihydro-2H-imidazol[4,5-c][1,5]naphthyridin-2-one] | 8.00 | 0.0107 | 1.08 |
| COc1ncc(-c2ccc3ncc4c(c3n2)n([C@H]2CC[C@H](OCCO)CC2)c(=O)n4C)cn1 [Compound 148, 1-[trans-4-(2-hydroxyethoxy)cyclohexyl]-8-(2-methoxypyrimidin-5-yl)-3-methyl-1,3-dihydro-2H-imidazo[4,5-c][1,5]naphthyridin-2-one] | 7.87 | 0.0263 | 2.09 |
| CN(C)c1ccc(-c2ccc3ncc4c(c3n2)n([C@H]2CC[C@H](OCCO)CC2)c(=O)n4C)cn1 [Compound 149, 8-[6-(dimethylamino)pyridin-3-yl]-1-[trans-4-(2-hydroxyethoxy)cyclohexyl]-3-methyl-1,3-dihydro-2H-imidazo[4,5-c][1,5]naphthyridin-2-one] | 8.04 | 0.0116 | 0.102 |
| CN(C)c1ccc(-c2ccc3ncc4c(c3n2)n(C2CCN(CC(F)(F)F)CC2)c(=O)n4C)cn1 [Compound 150, 8-[6-(dimethylamino)pyridin-3-yl]-3-methyl-1-[1-(2,2,2-trifluoroethyl)piperidin-4-yl]-1,3-dihydro-2H-imidazo[4,5-c][1,5]naphthyridin-2-one] | 7.90 | 0.0182 | 8.78 |
| Cc1ccc(-c2ccc3ncc4c(c3n2)n([C@H]2CC[C@H](OCCO)CC2)c(=O)n4C)cn1 [Compound 152, 1-[trans-4-(2-hydroxyethoxy)cyclohexyl]-3-methyl-8-(6-methylpyridin-3-yl)-1,3-dihydro-2H-imidazo[4,5-c][1,5]naphthyridin-2-one] | 7.94 | 0.00863 | 1.68 |
| COc1ncc(-c2ccc3ncc4c(c3n2)n(C2CCN(C(=O)[C@H](C)O)CC2)c(=O)n4C)cn1 [Compound 154, 1-{1-[(2S)-2-hydroxypropanoyl]piperidin-4-yl}-8-(2-methoxypyrimidin-5-yl)-3-methyl-1,3-dihydro-2H-imidazo[4,5-c][1,5]naphthyridin-2-one] | 9.09 | 0.0342 | 2.59 |
| COc1ncc(-c2ccc3ncc4c(c3n2)n(C2CCN(CC(=O)N(C)C)CC2)c(=O)n4C)cn1 [Compound 163, 2-{4-[8-(2-methoxypyrimidin-5-yl)-3-methyl-2-oxo-2,3-dihydro-1H-imidazo[4,5-c][1,5]naphthyridin-1-yl]piperidin-1-yl}-N,N-dimethylacetamide] | 7.74 | 0.037 | 4.7 |
| Cc1ccc(-c2ccc3ncc4c(c3n2)n(C2CCN(c3ncccn3)CC2)c(=O)n4C)cn1 [Compound 165, 3-methyl-8-(6-methylpyridin-3-yl)-1-(1-pyrimidin-2-ylpiperidin-4-yl)-1,3-dihydro-2H-imidazo[4,5-c][1,5]naphthyridin-2-one] | 7.14 | 0.0414 | 3.52 |
| Cc1ccc(-c2ccc3ncc4c(c3n2)n(C2CCN(CCO)CC2)c(=O)n4C)cn1 [Compound 166, 1-[1-(2-hydroxyethyl)piperidin-4-yl]-3-methyl-8-(6-methylpyridin-3-yl)-1,3-dihydro-2H-imidazo[4,5-c][1,5]naphthyridin-2-one] | 7.75 | 0.0356 | 1.77 |
| Cn1c(=O)n([C@H]2CC[C@H](O)CC2)c2c3nc(-c4cn[nH]c4)ccc3ncc21 [Compound 168, 1-(trans-4-hydroxycyclohexyl)-3-methyl-8-(1H-pyrazol-4-yl)-1,3-dihydro-2H-imidazo[4,5-c][1,5]naphthyridin-2-one] | 9.69 | 0.0197 | 4.17 |
| Cn1cc(-c2ccc3ncc4c(c3n2)n([C@H]2CC[C@H](O)CC2)c(=O)n4C)cn1 [Compound 170, 1-(trans-4-hydroxycyclohexyl)-3-methyl-8-(1-methyl-1H-pyrazo1-4-yl)-1,3-dihydro-2H-imidazo[4,5-c][1,5]naphthyridin-2-one] | 8.14 | 0.107 | 7.44 |
| Cc1ccc(-c2ccc3ncc4c(c3n2)n(C2CCN(C)CC2)c(=O)n4C)cn1 [Compound 171, 3-methyl-1-(1-methylpiperidin-4-yl)-8-(6-methylpyridin-3-yl)-1,3-dihydro-2H-imidazo[4,5-c][1,5]naphthyridin-2-one] | 7.40 | 0.0228 | 4.26 |
| Cc1ccc(-c2ccc3ncc4c(c3n2)n(C2CCN(CC(N)=O)CC2)c(=O)n4C)cn1 [Compound 176, 2-{4-[3-methyl-8-(6-methylpyridin-3-yl)-2-oxo-2,3-dihydro-1H-imidazo[4,5-c][1,5]naphthyridin-1-yl]piperidin-1-yl}acetamide] | 8.85 | 0.0187 | 0.882 |
| Cc1ccc(-c2ccc3ncc4c(c3n2)n(C2CCN(C(=O)CN(C)C)CC2)c(=O)n4C)cn1 [Compound 178, 1-[1-(N,N-dimethylglycyl)piperidin-4-yl]-3-methyl-8-(6-methylpyridin-3-yl)-1,3-dihydro-2H-imidazo[4,5-c][1,5]naphthyridin-2-one] | 8.93 | 0.0427 | 4.09 |
| Cc1ccc(-c2ccc3ncc4c(c3n2)n([C@H]2CC[C@H](O)CC2)c(=O)n4C)cn1 [Compound 179, 1-(trans-4-hydroxycyclohexyl)-3-methyl-8-(6-methylpyridin-3-yl)-1,3-dihydro-2H-imidazo[4,5-c][1,5]naphthyridin-2-one] | 8.48 | 0.0185 | 1.03 |
| Cc1ccc(-c2ccc3ncc4c(c3n2)n(C2CCN(C(=O)CN)CC2)c(=O)n4C)cn1 [Compound 180, 1-(1-glycylpiperidin-4-yl)-3-methyl-8-(6-methylpyridin-3-yl)-1,3-dihydro-2H-imidazo[4,5-c][1,5]naphthyridin-2-one] | 8.42 | 0.0689 | 0.32 |
| COc1ncc(-c2ccc3ncc4c(c3n2)n(C2CCN(C)CC2)c(=O)n4C)cn1 [Compound 182, 8-(2-methoxypyrimidin-5-yl)-3-methyl-1-(1-methylpiperidin-4-yl)-1,3-dihydro-2H-imidazo[4,5-c][1,5]naphthyridin-2-one] | 8.35 | 0.159 | 27.5 |
